According to patent publication US7879861B2, “Combi-molecules having EGFR and DNA targeting properties” (priority 2005, dated 2011):
Where two headings read alike, the source gives them in different places. Values belong to the compound of their own block, whether it stands above or below them.

Tests used:
[1] = Degradation in serum at 37° C. by HPLC; format: in vitro ADME; conditions: 24 h incubation in serum at 37° C.; release of 2 eq. of amine taken for 100%
Experimental: (§1) The degradation of double-arm combi-triazenes 5-9 has been investigated by HPLC. […] The rates of decomposition of bis-triazenes 7, 8 and 9 were measured by fluorescence spectroscopy by monitoring the formation of 1 (excitation: 279 and emission: 451). The determined half-lives ranged from 2 h for 7 and 8 to 3 h 20 min for 9.

EGFR [2] = molecular target: T1, EGFR (Homo sapiens, UniProt P00533); assay: EGFR kinase assay (ELISA, PGT substrate phosphorylation); format: biochemical; parameters: endogenous in cells; conditions: 10 min exposure; read-out: IC50, EGFR inhibitory potency, purified enzyme assay
LNCaPerbB2 = assay: 6 day growth inhibition assay, LNCaP panel; conditions: Homo sapiens, 144 h, read-out: IC50, LNCaPerbB2 transfected cell line
DU145 = assay: Growth inhibition in androgen independent prostate cancer cell line; conditions: Homo sapiens
[3] = Rate of decomposition by fluorescence spectroscopy (formation of amine 1); format: physicochemical; conditions: excitation 279, emission 451
Experimental: as §1

NIH3T3 [4] = assay: Growth inhibition in isogenic NIH3T3 panel (double-arm combi-triazenes); format: cell-based; conditions: Mus musculus, FIG. 14
NIH3T3/neu = assay: as above; format: cell-based, mouse; conditions: for IC50: Mus musculus, NIH3T3, FIG. 14; for fold selectivity for neu transfectant: vs NIH3T3
NIH3T3/Her14 = assay: as above; format: cell-based, mouse; conditions: for IC50: Mus musculus, NIH3T3, FIG. 14; for fold selectivity for EGFR transfectant: vs NIH3T3
MDA-MB-468 cells [5] = assay: Reversibility of antiproliferative effect, SRB assay; format: cell-based, human
Experimental: (§2) In vitro growth inhibition assay: To study the effect of the compounds on growth factor stimulated-proliferation, cells were grown to 70% of confluence in 48-well plates. […] Cell growth was measured using the sulforhodamine B (SRB) assay (24). Briefly, following drug treatment, cells were fixed using 50 μl of cold trichloroacetic acid (50%) for 60 min at 4° C., washed five times with tap water, and stained for 30 min at room temperature with SRB (0.4%) and dissolved in acetic acid (0.5%). The plates were rinsed five times with 1% acetic acid and allowed to air dry. The resulting colored residue was dissolved in 200 μl of Tris base (10 mM), and the optical density read for each well at 450 nm using a Bio-Rad microplate reader (model 2550). […] Cell growth was measured using SRB assay as described previously.

NIH3T3neu [6] = molecular target: T2, NIH3T3neu (UniProt P04626, cells depend on it, species not given); assay: Blockade of serum-stimulated growth, SRB assay (Table 1); format: cell-based, mouse; conditions: serum-stimulated growth; read-out: Inhibition of growth stimulation of NIH3T3neu
T2 construct: other: serum-stimulated growth
Experimental: (§3) In vitro growth inhibition assay: To study the effect of the compounds on growth factor stimulated-proliferation, cells were grown to 70% of confluence in 48-well plates. They were subsequently washed twice with PBS, incubated in serum-free medium for 18 h and exposed to each drug+growth factors (EGF, TGFα, PDGF or serum) for 72 h. Cell growth was measured using the sulforhodamine B (SRB) assay (24). Briefly, following drug treatment, cells were fixed using 50 μl of cold trichloroacetic acid (50%) for 60 min at 4° C., washed five times with tap water, and stained for 30 min at room temperature with SRB (0.4%) and dissolved in acetic acid (0.5%). The plates were rinsed five times with 1% acetic acid and allowed to air dry. The resulting colored residue was dissolved in 200 μl of Tris base (10 mM), and the optical density read for each well at 450 nm using a Bio-Rad microplate reader (model 2550). […] Cell growth was measured using SRB assay as described previously.

NIH3T3 [7] = assay: as above; format: cell-based; conditions: Mus musculus, read-out: Inhibition of growth stimulation of NIH3T3
Experimental: as §3

A431 = assay: Inhibition of basal growth (Table 1); format: cell-based; conditions: Homo sapiens, A-431
Experimental: as §3

EGFR [8] = molecular target: T1, EGFR; assay: EGFR kinase assay (ELISA, PGT substrate phosphorylation); format: biochemical; parameters: endogenous in cells; conditions: Table 1, inhibition of EGFR kinase; read-out: EGFR Binding
Experimental: Kinase assays: The EGFR kinase assay is similar to the one described in previously published procedures (19, 20). Nunc Maxisorp 96-well plates were incubated overnight at 37° C. with 100 μl/well of 0.25 mg/ml poly (L-glutamic acid-L-tyrosine, 4:1) PGT in PBS. Excess PGT was removed and the plate was washed three times with wash buffer (Tween 20 (0.1%) in PBS). […] The compound was added and phosphorylation initiated by the addition of ATP 50 μM. After 8 min at room temperature with constant shaking, the reaction was terminated by aspiration of the reaction mixture and rinsing the plate four times with wash buffer. […] Antibody was removed by aspiration, and the plate washed four times with wash buffer.

NIH3T3neu [9] = assay: Blockade of serum-stimulated growth, SRB assay (Table 1); format: cell-based, mouse; conditions: FIG. 12, 72 h
Experimental: as §3

MDA-MB-453 cells = assay: Reversibility of antiproliferative effect, SRB assay; format: cell-based, human
Experimental: as §2

MDA-MB-468 cells [10] = assay: Annexin V binding (apoptosis), flow cytometry; format: cell-based, human; conditions: for levels of apoptosis: 5 μM, 24, 48 and 72 h
Experimental: Annexin V Binding: Cells were grown in 6-well plates until confluence and then incubated with the compounds for 24 h, 48 and 72 h. The cells were then harvested, washed twice with PBS, and centrifuged. Cells (10^5) were treated with annexin V-FITC and propidium iodide (PI) using the Apoptosis Detection Kit (BD Bioscience Pharmingen, USA) and the supplier's protocol. Annexin V-FITC and PI binding were analyzed by flow cytometry. Data were collected using logarithmic amplification of both the FL1 (FITC) and FL2 (PI) channels. Quadrant analysis of co-ordinate dot plots was performed with CellQuest software. Unstained cells were used to adjust the photomultiplier voltage and for compensation setting adjustment in order to eliminate spectral overlap between the FL1 and FL2 signals.

[11] = tested on: human breast carcinoma MDA-MB-468; assay: In vivo efficacy, MDA-MB-468 implanted in the mammary fat pad; parameters: species or system SCID mice
Experimental: In vivo studies: SCID mice were maintained as per McGill animal safety protocols. In a preliminary model, SCID mice housed in filtered cages were implanted subcutaneously (s.c.) with the human breast carcinoma MDA-MB-468 and treatment began when the tumors were palpable (8 mice/group). […] The tumor burdens were measured with a caliper and mice were weighed twice weekly. The study was later repeated with the MDA-MB-468 cells implanted in the mammary fat pad, a model that better mimics human breast carcinoma.

Water solubility = format: physicochemical
[12] = DU-145, 144 h, read-out: IC50, 6 day continued growth inhibition assay
[13] = DU-145, read-out: IC50, growth inhibition in DU145

T1 sequence (P00533 25-1210): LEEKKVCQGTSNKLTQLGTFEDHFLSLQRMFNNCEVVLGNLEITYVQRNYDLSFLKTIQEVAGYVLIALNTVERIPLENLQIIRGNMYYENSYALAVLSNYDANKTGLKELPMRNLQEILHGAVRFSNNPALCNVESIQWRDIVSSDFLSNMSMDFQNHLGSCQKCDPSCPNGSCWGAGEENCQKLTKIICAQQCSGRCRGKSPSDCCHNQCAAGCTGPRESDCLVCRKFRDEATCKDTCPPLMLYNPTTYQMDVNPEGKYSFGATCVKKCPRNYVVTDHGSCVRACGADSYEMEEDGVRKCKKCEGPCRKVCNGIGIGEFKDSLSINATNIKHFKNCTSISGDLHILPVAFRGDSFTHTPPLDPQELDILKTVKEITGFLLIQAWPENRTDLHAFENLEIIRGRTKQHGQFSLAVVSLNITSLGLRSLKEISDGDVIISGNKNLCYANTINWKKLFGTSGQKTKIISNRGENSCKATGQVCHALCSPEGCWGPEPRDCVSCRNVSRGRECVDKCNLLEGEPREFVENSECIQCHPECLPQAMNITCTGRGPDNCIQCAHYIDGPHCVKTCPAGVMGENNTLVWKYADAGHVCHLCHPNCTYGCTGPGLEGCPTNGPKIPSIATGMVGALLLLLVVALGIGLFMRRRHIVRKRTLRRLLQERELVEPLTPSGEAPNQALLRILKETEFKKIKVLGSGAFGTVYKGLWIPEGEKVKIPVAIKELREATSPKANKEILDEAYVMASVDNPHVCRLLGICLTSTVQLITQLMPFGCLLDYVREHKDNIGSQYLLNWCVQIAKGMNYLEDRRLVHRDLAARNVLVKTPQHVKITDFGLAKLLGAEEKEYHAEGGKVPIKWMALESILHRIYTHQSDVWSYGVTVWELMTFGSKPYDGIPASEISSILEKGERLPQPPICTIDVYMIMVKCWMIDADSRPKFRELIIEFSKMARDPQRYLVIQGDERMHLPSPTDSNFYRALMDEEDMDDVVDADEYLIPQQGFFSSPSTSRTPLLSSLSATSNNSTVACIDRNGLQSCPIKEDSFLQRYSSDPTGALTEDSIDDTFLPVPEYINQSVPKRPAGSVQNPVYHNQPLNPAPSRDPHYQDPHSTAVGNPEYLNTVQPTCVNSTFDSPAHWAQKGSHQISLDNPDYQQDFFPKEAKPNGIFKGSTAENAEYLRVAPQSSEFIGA

Compound: Clc1cccc(Nc2ncnc3ccc(N=NNCc4ccccc4CNN=Nc4ccc5ncnc(Nc6cccc(Cl)c6)c5c4)cc23)c1 [Double-arm combi-triazene 5]
release of parent amine 1 [1]: negligible quantities
IC50 (EGFR [2]): 7 µM
IC50 (LNCaPerbB2): 18 µM
IC50 (DU145; [12]): 12 µM

Compound: Clc1cccc(Nc2ncnc3ccc(N=NNCc4ccc(CNN=Nc5ccc6ncnc(Nc7cccc(Cl)c7)c6c5)cc4)cc23)c1 [Double-arm combi-triazene 6]
IC50 (EGFR [2]): > 10 µM
IC50 (LNCaPerbB2): 37 µM
IC50 (DU145; [12]): 35 µM

Compound: Clc1cccc(Nc2ncnc3ccc(N=NNCCN4CCN(CCNN=Nc5ccc6ncnc(Nc7cccc(Cl)c7)c6c5)CC4)cc23)c1 [Double-arm combi-triazene 7]
half-life [3]: 2 h
IC50 (NIH3T3 [4]): 44 µM
IC50 (NIH3T3/neu): 0.4 µM
fold selectivity for neu transfectant (NIH3T3/neu): 110 fold
IC50 (NIH3T3/Her14): 0.5 µM
fold selectivity for EGFR transfectant (NIH3T3/Her14): 88 fold
IC50 (EGFR [2]): 1 µM
IC50 (LNCaPerbB2): 9 µM
IC50 (DU145; [12]): 1.8 µM
IC50 (DU145; [13]): 2.8 µM

Compound: CN(CCNN=Nc1ccc2ncnc(Nc3cccc(Cl)c3)c2c1)CCN(C)CCNN=Nc1ccc2ncnc(Nc3cccc(Cl)c3)c2c1 [Double-arm combi-triazene 8]
half-life [3]: 2 h
IC50 (NIH3T3 [4]): 0.1 µM
IC50 (NIH3T3/neu): 0.02 µM
IC50 (NIH3T3/Her14): 0.02 µM
fold more active (NIH3T3/Her14; compared with double-arm combi-triazene 9): 20 fold
IC50 (EGFR [2]): 0.05 µM
IC50 (LNCaPerbB2): 6 µM
IC50 (DU145; [12]): 3.2 µM
IC50 (DU145; [13]): 1 µM

Compound: CN(CCNN=Nc1ccc2ncnc(Nc3cccc(Cl)c3)c2c1)CCNN=Nc1ccc2ncnc(Nc3cccc(Cl)c3)c2c1 [Double-arm combi-triazene 9]
IC50 (NIH3T3 [4]): 2.3 µM
fold selectivity for neu transfectant (NIH3T3/neu): 7 fold
IC50 (NIH3T3/Her14): 0.5 µM
fold selectivity for EGFR transfectant (NIH3T3/Her14): 4 fold
IC50 (EGFR [2]): 0.003 µM
IC50 (LNCaPerbB2): 11 µM
IC50 (DU145; [12]): 2.3 µM
IC50 (DU145; [13]): 2.6 µM

IC50 (MDA-MB-468 cells [5]; MDA-MB-468, SRB, read-out: IC50, growth inhibition, 120 h continuous exposure): 23.6 µM
IC50 (MDA-MB-468 cells [5]; read-out: IC50, growth inhibition, 2 h exposure followed by 120 h recovery, MDA-MB-468, SRB): 192 µM
Compound: Nc1ccc2ncnc(Nc3cccc(Cl)c3)c2c1 [FD105, reference compound]

GI50 (NIH3T3neu [6]): 43.3 µM
IC50 (A431): 38.1 µM
IC50 (EGFR [8]): 0.036 µM
Compound: CN(CCN(C)N=Nc1ccc2ncnc(Nc3cccc(Cl)c3)c2c1)CCN(C)N=Nc1ccc2ncnc(Nc3cccc(Cl)c3)c2c1 [JCF29]
IC50 (NIH3T3 [7]): 186 µM

GI50 (NIH3T3neu [6]): 23.1 µM
IC50 (EGFR [8]): 0.29 µM
Compound: CN(CCN(C)N=Nc1ccc2ncnc(Nc3cccc(Cl)c3)c2c1)N=Nc1ccc2ncnc(Nc3cccc(Cl)c3)c2c1 [JFC16]
IC50 (NIH3T3 [7]): 137 µM

GI50 (NIH3T3neu [6]): 1.25 µM
IC50 (A431): 18.9 µM
IC50 (EGFR [8]): 0.014 µM
Compound: CN(C)CCN(C)N=Nc1ccc2ncnc(Nc3cccc(Cl)c3)c2c1 [JFC30]
IC50 (NIH3T3 [7]): 13.9 µM

GI50 (NIH3T3neu [6]): < 0.75 µM
IC50 (A431): 4.79 µM
IC50 (EGFR [8]): 0.003 µM
Compound: CN(CCOCCN(C)N=Nc1ccc2ncnc(Nc3cccc(Cl)c3)c2c1)N=Nc1ccc2ncnc(Nc3cccc(Cl)c3)c2c1 [JFC31]
selectivity for NIH3T3 HER2 transfected cells in isogenic model (NIH3T3neu [9]): significant selectivity
IC50 (NIH3T3 [7]): 4.65 µM

GI50 (NIH3T3neu [6]): 1.65 µM
IC50 (A431): 23.4 µM
IC50 (EGFR [8]): 0.013 µM
Compound: COCCN(C)N=Nc1ccc2ncnc(Nc3cccc(Cl)c3)c2c1 [JFC32]
IC50 (NIH3T3 [7]): 112 µM

IC50 (MDA-MB-453 cells; Homo sapiens, MDA-MB-453, 120 h, MDA-MB-453, SRB, read-out: IC50, growth inhibition, 120 h continuous exposure): 1.81 µM
IC50 (MDA-MB-453 cells; Homo sapiens, MDA-MB-453, read-out: IC50, growth inhibition, 2 h exposure followed by 120 h recovery, MDA-MB-453, SRB): 10.3 µM
IC50 (MDA-MB-453 cells; MDA-MB-453, SRB, read-out: IC50, growth inhibition, 120 h continuous exposure): 1.71 µM
IC50 (MDA-MB-453 cells; read-out: IC50, growth inhibition, 2 h exposure followed by 120 h recovery, MDA-MB-453, SRB): 11.5 µM
Compound: C=CC(=O)Nc1ccc2ncnc(Nc3cccc(Br)c3)c2c1 [PD168393, reference compound]
levels of apoptosis (MDA-MB-468 cells [10]): barely detectable levels of apoptosis

Compound: Nc1ccc2ncnc(Nc3cccc(Br)c3)c2c1 [ZR01, reference compound]
levels of apoptosis (MDA-MB-468 cells [10]): barely detectable levels of apoptosis

Compound: ClCCNc1ccc2ncnc(Nc3cccc(Cl)c3)c2c1 [ZR2003]
IC50 (MDA-MB-468 cells [5]; Homo sapiens, MDA-MB-468, 120 h, read-out: IC50, growth inhibition, 120 h continuous exposure, MDA-MB-468, SRB): 0.51 µM
IC50 (MDA-MB-468 cells [5]; Homo sapiens, MDA-MB-468, read-out: IC50, growth inhibition, 2 h exposure followed by 120 h recovery, MDA-MB-468, SRB): 4.81 µM
concentration at which detectable levels of apoptosis start (MDA-MB-468 cells [10]): 12 µM
cell death by apoptosis compared with FD105 (MDA-MB-468 cells [10]; 12 μM, 48 h): significantly higher levels of cell death by apoptosis
in vivo antiproliferative activity ([11]; 50 mg/kg i.p. every 3-4 days, mammary fat pad): strong antiproliferative activity
in vivo potency compared with ZR2002 ([11]; mouse, in vivo): significantly more potent
in vivo potency compared with FD105 ([11]; same dose, p<0.05): significant superior potency
water solubility (in words) (Water solubility): more hydro-soluble
